Test results: publication PMC9867241, “Antioxidant and Cytotoxic Activity of New Polyphenolic Derivatives of Quinazolin-4(3H)-one: Synthesis and In Vitro Activities Evaluation” (Pharmaceutics, 2022)
≈ marks a conversion by molar mass, not a printed value.

What was measured:
[1] = ABTS˙+ radical scavenging assay
Description: The stock solutions (1 mg/mL) of the tested compounds and the controls were obtained, by dissolving the substances in dimethyl sulfoxide (DMSO). Using Jasco V-530, an UV-VIS spectrophotometer (Jasco International Co., Ltd., Tokyo, Japan), we performed the colorimetric determinations in low-volume single-use 10 mm width cuvettes.
The assays were performed in triplicate and the results are presented as averages for each assay.

[2] = Cu^2+ chelation assay (murexide competition)
Source text: With murexide as a chromophoric chelator, we performed the protocol followed for the evaluation of Cu^2+ chelating activities of the compounds using an adaptation of the method presented by Cesari et al. and Wu et al.. Using Equation (6), we calculated the copper chelation capacities of the 5a–d and 6a–d compounds:(6) copper chelation (%)=(A485/A520)control−(A485/A520)sample/(A485/A520)control×100
The evaluation of the Cu^2+ chelation activity of compounds was made based on the competition for Cu^2+ with murexide. The chelating activity of compounds for the cupric ions found in the current assay is significant for the pyrogallol derivatives, being quite close to EDTA-Na2.

[3] = Phosphomolybdate assay for total antioxidant capacity (TAC); design: concentration or dose not given beside the values; conditions: for TAC, % of Activity of Trolox: relative to Trolox; for TAC, % of Activity of Ascorbic Acid: relative to ascorbic acid
Source text: Using the phosphomolybdate assay, we determined the total antioxidant capacity (TAC) of the tested compounds. We measured the solutions’ absorbances against a blank sample at λ = 695 nm, using a previously reported procedure by our group, based on initial literature reports. Using Equation (4), we calculated the TAC of 5a–d and 6a–d compounds.
At acidic pH, the tested compounds transfer one electron to Mo^6+ to reduce it to Mo^5+.

[4] = Fe^2+ chelation assay (ferrozine competition)
Description: In the protocol used for evaluating the Fe^2+ chelating ability of the compounds, the absorbances of the solutions were determined at λ = 562 nm, against a blank sample. The method was adapted from the initial report of Benzie and Strain et al., which was previously reported by our group. Using Equation (5), we calculated the iron chelation capacities of the 5a–d and 6a–d compounds:(5) iron chelation (%)=control absorbance−sample absorbance/control absorbance×100
The chelating capacity of the tested compounds of Fe^2+ was evaluated based on their competition for Fe^2+ with ferrozine.

[5] = Reducing power (RP) assay; design: concentration or dose not given beside the values; conditions: for RP, % of Activity of Trolox: relative to Trolox; for RP, % of Activity of Ascorbic Acid: relative to ascorbic acid
Description: Herein, the iron (III) is not free in the solution as it was in the FRAP assay and is complexed by cyanide ions. The evaluation of the reducing power (RP) was performed at a pH closer to neutral (pH = 6.6); this is different from the FRAP test, which is performed in an acidic environment. Against a blank sample, the absorbances were measured at λ = 700 nm. The followed protocol was based on the adaptation of previously reported protocols and was previously reported by our group. Using Equation (4), we calculated the reducing power of the 5a–d and 6a–d compounds as a percentage of the reference compounds activity.
The evaluated compounds can reduce ferricyanide to ferrocyanide, in the presence of ferric ions, resulting in the Perl’s Prussian which gives blue. The higher the percentage of reducing power, the higher was the absorbance that was measured due to a higher amount of colored complex resulting from the reaction.

Row | Structure (SMILES) | IC50 [1] [µM] | IC50 (ABTS˙^+ scavenging) [1] [µg/mL] | % of ABTS˙^+ Scavenging ([1]; 0.83 µg/mL) [%] | % of ABTS˙^+ Scavenging ([1]; 1.67 µg/mL) [%] | % of ABTS˙^+ Scavenging ([1]; 3.33 µg/mL) [%] | % of ABTS˙^+ Scavenging ([1]; 4.99 µg/mL) | % of ABTS˙^+ Scavenging ([1]; 6.66 µg/mL) | % of ABTS˙^+ Scavenging ([1]; 9.99 µg/mL) | % of ABTS˙^+ Scavenging ([1]; 13.32 µg/mL) | Cupric ions Chelation Capacity (%) ([2]; 3.36 µg/mL) | Cupric ions Chelation Capacity (%) ([2]; 8.40 µg/mL) | Cupric ions Chelation Capacity (%) ([2]; 16.80 µg/mL) | TAC, % of Activity of Trolox [3] [%] | TAC, % of Activity of Ascorbic Acid [3] [%] | Ferrous ions Chelation Capacity (%) ([4]; 17.70 µg/mL) | Ferrous ions Chelation Capacity (%) ([4]; 20.59 µg/mL) | Ferrous ions Chelation Capacity (%) ([4]; 29.41 µg/mL) | Ferrous ions Chelation Capacity (%) ([4]; 44.11 µg/mL) | Ferrous ions Chelation Capacity (%) ([4]; 58.82 µg/mL) | Ferrous ions Chelation Capacity (%) ([4]; 88.23 µg/mL) | other results
1 | O=C(CSc1nc2ccccc2c(=O)n1Cc1ccccc1)NN=Cc1ccc(O)c(O)c1O [Compound 5b, 2-((3-Benzyl-4-oxo-3,4-dihydroquinazolin-2-yl)thio)-N’-(2,3,4-trihydroxybenzylidene)acetohydrazide] | 4.01 | 1.91 (≈ 4.01 µM) | 34.65 | 49.32 | 68.62 | 85.98% | + (+ represents more than 95%) | + (+ represents more than 95%) | + (+ represents more than 95%) | 11.17 | 25.27 | 40.20 | 156.96 | 81.34 | - (- represents less than 5%) | - (- represents less than 5%) | - (- represents less than 5%) | - (- represents less than 5%) | - (- represents less than 5%) | - (- represents less than 5%) | Ferrous ions Chelation Capacity (%) ([4]; 117.64 µg/mL): - (- represents less than 5%); Ferrous ions Chelation Capacity (%) ([4]; 257.46 µg/mL): 19.02%; Ferrous ions Chelation Capacity (%) ([4]; 343.28 µg/mL): 35.16%; RP, % of Activity of Trolox [5]: 85.68%; RP, % of Activity of Ascorbic Acid [5]: 58.80%
2 | CCCCn1c(SCC(=O)NN=Cc2ccc(O)c(O)c2O)nc2ccccc2c1=O [Compound 5d, 2-((3-Butyl-4-oxo-3,4-dihydroquinazolin-2-yl)thio)-N’-(2,3,4-trihydroxybenzylidene)acetohydrazide] | 3.5 | 1.55 (≈ 3.5 µM) | 41.98 | 52.25 | 67.46 | 81.06% | + (+ represents more than 95%) | + (+ represents more than 95%) | + (+ represents more than 95%) | 14.19 | 28.04 | 41.42 | 117.87 | 61.09 | - (- represents less than 5%) | - (- represents less than 5%) | - (- represents less than 5%) | - (- represents less than 5%) | - (- represents less than 5%) | - (- represents less than 5%) | Ferrous ions Chelation Capacity (%) ([4]; 117.64 µg/mL): 58.18%; Ferrous ions Chelation Capacity (%) ([4]; 257.46 µg/mL): 71.56%; Ferrous ions Chelation Capacity (%) ([4]; 343.28 µg/mL): 80.50%; RP, % of Activity of Trolox [5]: 72.18%; RP, % of Activity of Ascorbic Acid [5]: 49.54%
3 | C=CCn1c(SCC(=O)NN=Cc2ccc(O)c(O)c2O)nc2ccccc2c1=O [Compound 5a, 2-((3-Allyl-4-oxo-3,4-dihydroquinazolin-2-yl)thio)-N’-(2,3,4-trihydroxybenzylidene)acetohydrazide] | 3.87 | 1.65 (≈ 3.87 µM) | 38.14 | 51.47 | 72.00 | + (+ represents more than 95%) | + (+ represents more than 95%) | + (+ represents more than 95%) | + (+ represents more than 95%) | 20.33 | 30.76 | 40.29 | 176.42 | 91.43 | - (- represents less than 5%) | - (- represents less than 5%) | - (- represents less than 5%) | - (- represents less than 5%) | 18.44% | 34.12% | Ferrous ions Chelation Capacity (%) ([4]; 117.64 µg/mL): 45.93%; Ferrous ions Chelation Capacity (%) ([4]; 257.46 µg/mL): 71.76%; Ferrous ions Chelation Capacity (%) ([4]; 343.28 µg/mL): 86.30%; RP, % of Activity of Trolox [5]: 92.09%; RP, % of Activity of Ascorbic Acid [5]: 63.20%

Continued, in another order:

Row | IC50 [1] [µM] | IC50 (ABTS˙^+ scavenging) [1] [µg/mL] | Structure (SMILES) | % of ABTS˙^+ Scavenging ([1]; 0.83 µg/mL) [%] | % of ABTS˙^+ Scavenging ([1]; 1.67 µg/mL) [%] | % of ABTS˙^+ Scavenging ([1]; 3.33 µg/mL) [%] | % of ABTS˙^+ Scavenging ([1]; 4.99 µg/mL) | % of ABTS˙^+ Scavenging ([1]; 6.66 µg/mL) | % of ABTS˙^+ Scavenging ([1]; 9.99 µg/mL) | % of ABTS˙^+ Scavenging ([1]; 13.32 µg/mL) | Cupric ions Chelation Capacity (%) ([2]; 3.36 µg/mL) | Cupric ions Chelation Capacity (%) ([2]; 8.40 µg/mL) | Cupric ions Chelation Capacity (%) ([2]; 16.80 µg/mL) | TAC, % of Activity of Trolox [3] [%] | TAC, % of Activity of Ascorbic Acid [3] [%] | Ferrous ions Chelation Capacity (%) ([4]; 17.70 µg/mL) | Ferrous ions Chelation Capacity (%) ([4]; 20.59 µg/mL) | Ferrous ions Chelation Capacity (%) ([4]; 29.41 µg/mL) | Ferrous ions Chelation Capacity (%) ([4]; 44.11 µg/mL) | Ferrous ions Chelation Capacity (%) ([4]; 58.82 µg/mL) | Ferrous ions Chelation Capacity (%) ([4]; 88.23 µg/mL) | other results
4 | 16.9 | 7.17 (≈ 16.9 µM) | C=CCn1c(SCC(=O)NN=C(C)c2ccc(O)cc2O)nc2ccccc2c1=O [Compound 6a, 2-((3-Allyl-4-oxo-3,4-dihydroquinazolin-2-yl)thio)-N’-(1-(2,4-dihydroxyphenyl)ethylidene)acetohydrazide] | 27.03 | 30.08 | 37.19 | 42.27% | 50.03% | 60.55% | 70.24% | 10.96 | 20.64 | 31.79 | 94.38 | 48.91 | - (- represents less than 5%) | - (- represents less than 5%) | - (- represents less than 5%) | - (- represents less than 5%) | - (- represents less than 5%) | - (- represents less than 5%) | Ferrous ions Chelation Capacity (%) ([4]; 117.64 µg/mL): - (- represents less than 5%); Ferrous ions Chelation Capacity (%) ([4]; 257.46 µg/mL): - (- represents less than 5%); Ferrous ions Chelation Capacity (%) ([4]; 343.28 µg/mL): - (- represents less than 5%); RP, % of Activity of Trolox [5]: 30.73%; RP, % of Activity of Ascorbic Acid [5]: 21.09%
5 | 11.7 | 5.17 (≈ 11.7 µM) | CCCCn1c(SCC(=O)NN=C(C)c2ccc(O)cc2O)nc2ccccc2c1=O [Compound 6d, 2-((3-butyl-4-oxo-3,4-dihydroquinazolin-2-yl)thio)-N’-(1-(2,4-dihydroxyphenyl)ethylidene)acetohydrazide] | 29.08 | 33.32 | 40.37 | 50.24% | 57.59% | 75.41% | 85.79% | 5.98 | 11.84 | 20.42 | 76.63 | 39.72 | - (- represents less than 5%) | - (- represents less than 5%) | - (- represents less than 5%) | - (- represents less than 5%) | - (- represents less than 5%) | - (- represents less than 5%) | Ferrous ions Chelation Capacity (%) ([4]; 117.64 µg/mL): - (- represents less than 5%); Ferrous ions Chelation Capacity (%) ([4]; 257.46 µg/mL): - (- represents less than 5%); Ferrous ions Chelation Capacity (%) ([4]; 343.28 µg/mL): - (- represents less than 5%); RP, % of Activity of Trolox [5]: 24.53%; RP, % of Activity of Ascorbic Acid [5]: 16.84%
